In experiment [1] the test system is influenza A virus (A/PR/8/34). Briefly: microbe, parasite or virus in culture. It is filed as cell-based. Conditions: Influenza A virus, PR/8, MDCK, MDCK cells.
For another experiment, the system named is influenza infection. Briefly: Influenza therapeutic mouse model (survival, body weight, whole body plethysmography). The experiment is classed as in vivo. Conditions: Balb/c mice, dosing @ 48 hours post infection with 30 mg/kg BID X 10 days.
The subject of experiment [2] is influenza A virus (A/PR/8/34) minus-strand viral RNA. Briefly: microbe, parasite or virus in culture. It is filed as cell-based. Conditions: Influenza A virus, PR/8.

By pIC50 is commonly meant −log10 of the IC50, conventionally taken in molar units. One may read the pEC50 as the negative decadic logarithm of the EC50, by convention in mol/L.

Molecules are shown by their SMILES. pEC50, pIC50: −log10 of the molar value. Where two headings read alike, the source gives them in different places.

For `O=C(O)[C@H]1C2CCC(CC2)[C@@H]1Nc1nc(-c2c[nH]c3ncc(F)cc23)c(F)cc1F` [Compound I-28, (2S,3S)-3-((3,5-difluoro-6-(5-fluoro-1H-pyrrolo[2,3-b]pyridin-3-yl)pyridin-2-yl)amino)bicyclo[2.2.2]octane-2-carboxylic acid], the pIC50 in experiment [1] (72 h, mean IC50 (mean all), A/PR/8/34, 72 hours, read-out: Flu, MDCK IC50) is > 5.48; in experiment [1] (CPE assay, A/PR/8/34, read-out: IC50), 8.30. For the same molecule, the “Percent Weight Loss (Day 8)” value in the experiment on influenza infection (post challenge day 8) was 24.8%. In addition, in the experiment with influenza infection (scored for 21 days), the “Percent Survival” value is recorded as 100%. Further, in the experiment on influenza infection (whole body plethysmography), the “WBP (Penh; Day 6)” value is 1.84. Besides, the negative-log EC50 (pEC50) in experiment [2] (bDNA assay, read-out: EC50) was 8.30; in experiment [2] (mean EC50 (mean all), viral RNA by bDNA, read-out: bDNA EC50), > 5.48.

For the origin of these results see US20130345218A1 (Vertex Pharmaceuticals Incorporated, priority 2010, published 2013).
